Measurements from article PMC9120017, “Inhibition mechanism of the chloride channel TMEM16A by the pore blocker 1PBC” (Nature Communications, 2022).
Read-outs that look alike come from different tables or passages of the source.

Biological target: T1, mouse TMEM16A mutant I636A (Mus musculus, UniProt Q8BHY3, I636A)
T1 construct: expressed in transfected cells; host or cells: HEK293T
T1 sequence (Q8BHY3 1-960 I636A): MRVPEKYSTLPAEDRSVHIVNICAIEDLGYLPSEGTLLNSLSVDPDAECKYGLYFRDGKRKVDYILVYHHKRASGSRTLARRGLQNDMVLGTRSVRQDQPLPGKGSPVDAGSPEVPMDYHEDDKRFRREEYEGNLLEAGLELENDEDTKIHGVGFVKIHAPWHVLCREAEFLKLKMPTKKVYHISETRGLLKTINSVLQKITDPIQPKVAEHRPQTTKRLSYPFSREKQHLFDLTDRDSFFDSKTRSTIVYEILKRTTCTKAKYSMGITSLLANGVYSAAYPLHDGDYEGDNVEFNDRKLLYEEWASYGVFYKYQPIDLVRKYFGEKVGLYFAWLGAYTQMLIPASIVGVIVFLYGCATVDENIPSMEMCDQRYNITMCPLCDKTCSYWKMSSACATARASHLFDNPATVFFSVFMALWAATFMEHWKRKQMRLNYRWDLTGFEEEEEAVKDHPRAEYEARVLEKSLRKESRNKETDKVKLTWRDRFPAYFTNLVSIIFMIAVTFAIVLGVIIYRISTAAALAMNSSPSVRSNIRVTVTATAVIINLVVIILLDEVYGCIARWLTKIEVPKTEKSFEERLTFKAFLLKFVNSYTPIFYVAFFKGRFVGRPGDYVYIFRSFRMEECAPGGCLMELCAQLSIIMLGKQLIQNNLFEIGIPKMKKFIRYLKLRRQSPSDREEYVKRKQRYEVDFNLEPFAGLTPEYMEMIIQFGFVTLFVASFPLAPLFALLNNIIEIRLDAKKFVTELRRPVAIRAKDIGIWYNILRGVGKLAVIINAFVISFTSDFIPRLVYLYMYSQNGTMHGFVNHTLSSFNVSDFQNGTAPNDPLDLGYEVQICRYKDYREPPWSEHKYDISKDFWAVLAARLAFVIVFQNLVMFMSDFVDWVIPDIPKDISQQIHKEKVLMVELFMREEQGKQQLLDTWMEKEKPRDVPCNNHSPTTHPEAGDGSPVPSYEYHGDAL
Assay: Inside-out patch recording of 1PBC block, mutant I636A
Assay type: cell-based
Details: for remaining activity at 3 µM: 1PBC conc 3; for remaining activity at 3 µM / remaining activity at 10 µM / remaining activity at 30 µM / remaining activity at 100 µM: read-out: relative current in 1PBC (avr); for remaining activity at 10 µM: 1PBC conc 10; for remaining activity at 30 µM: 1PBC conc 30; for remaining activity at 100 µM: 1PBC conc 100
Description: HEK293T cells (ATCC CRL-1573) were maintained in Dulbecco’s modified Eagle’s medium (DMEM; Sigma-Aldrich) supplemented with 10 U ml^−1 penicillin, 0.1 mg ml^−1 streptomycin (Sigma-Aldrich), 2 mM L-glutamine (Sigma-Aldrich), and 10% FBS (Sigma-Aldrich) in a humidified atmosphere containing 5% CO2 at 37 °C. HEK293S GnTI^− cells (ATCC CRL-3022) were maintained in HyClone HyCell TransFx-H medium (GE Healthcare) supplemented with 10 U ml^−1 penicillin, 0.1 mg ml^−1 streptomycin, 4 mM L-glutamine, 0.15% poloxamer 188 (Sigma-Aldrich), and 1% FBS in an atmosphere containing 5% CO2 at 185 rpm at 37 °C. The ac splice variant of mouse TMEM16A (UniProt ID: Q8BHY3), mouse TMEM16B (UniProt ID: Q8CFW1), or mouse TMEM16F (UniProt ID: Q6P9J9) bearing a 3C cleavage site, a Venus YFP, a Myc tag, and a Streptavidin-binding peptide (SBP) downstream of the open reading frame in a modified pcDNA3.1 vector (Invitrogen) were used as described previously[21],[31]. Mutations were introduced using a modified QuikChange method[58] and were verified by sequencing.
HEK293T cells were transfected with 3–4 μg DNA per 6 cm Petri dish using the calcium phosphate co-precipitation method and were used within 24–96 h after transfection. Recordings were performed on inside-out patches excised from HEK293T cells expressing the construct of interest. Patch pipettes were pulled from borosilicate glass capillaries (O.D. 1.5 mm, I.D. 0.86 mm, Sutter Instrument) and were fire-polished with a microforge (Narishige) before use. Pipette resistance was typically 3–8 MΩ when filled with the recording solutions detailed below. Seal resistance was typically 4 GΩ or higher. Voltage-clamp recordings were made using Axopatch 200B, Digidata 1550, and Clampex 10.7 (Molecular Devices). Analog signals were filtered with the in-built 4-pole Bessel filter at 10 kHz and were digitized at 20 kHz. Solution exchange was achieved using a gravity-fed system through a theta glass pipette mounted on an ultra-fast piezo-driven stepper (Siskiyou). […] All recordings were performed at 20 °C.
A symmetrical ionic condition was used throughout. Stock solution with Ca^2+-EGTA contained 150 mM NaCl, 5.99 mM Ca(OH)2, 5 mM EGTA, and 10 mM HEPES at pH 7.40. Stock solution with EGTA contained 150 mM NaCl, 5 mM EGTA, and 10 mM HEPES at pH 7.40. Free Ca^2+ concentrations were adjusted by mixing the stock solutions at the required ratios calculated using the WEBMAXC program (http://web.stanford.edu/~cpatton/webmaxcS.htm). Patch pipettes were filled with the stock solution with Ca^2+-EGTA, which has a free Ca^2+ concentration of 1 mM. 1PBC (ChemBridge) stock was reconstituted in anhydrous DMSO (Sigma-Aldrich) at 100 mM and stored at −20 °C. Working solutions with 1PBC were prepared by serial dilution. Unless otherwise stated, experiments were performed at a saturating Ca^2+ concentration as shown in Supplementary Table 1 and the primary data were corrected for current rundown as described previously[21],[25].
Concentration-response relations, obtained from the ratio of the I-V plots before and after the application of the blocker, were fitted to the Hill equation,1 I/Imax=1/1+IC50/[blocker]^h where I/Imax is the normalized current responses, IC50 defines the concentration at which inhibition is at its half-maximum, and h is the Hill coefficient.

N#Cc1c(C(F)(F)F)cc(O)n2c1nc1ccccc12 [1PBC]
IC50 (0 mV, 15 µM Ca2+): 6.73 µM
remaining activity at 3 µM (0 mV): 68.4%
remaining activity at 10 µM (0 mV): 39.2%
remaining activity at 30 µM (0 mV): 19.6%
remaining activity at 100 µM (0 mV): 9.71%
IC50 (20 mV, 15 µM Ca2+): 5.47 µM
remaining activity at 3 µM (20 mV): 63.6%
remaining activity at 10 µM (20 mV): 34.4%
remaining activity at 30 µM (20 mV): 17.1%
remaining activity at 100 µM (20 mV): 9.23%
IC50 (40 mV, 15 µM Ca2+): 4.65 µM
remaining activity at 3 µM (40 mV): 60.6%
remaining activity at 10 µM (40 mV): 30.8%
remaining activity at 30 µM (40 mV): 15.1%
remaining activity at 100 µM (40 mV): 5.83%
IC50 (60 mV, 15 µM Ca2+): 4.03 µM
remaining activity at 3 µM (60 mV): 56.6%
remaining activity at 10 µM (60 mV): 27.9%
remaining activity at 30 µM (60 mV): 14.3%
remaining activity at 100 µM (60 mV): 6.18%
log-fold IC50 (change of mutant vs WT) (80 mV): 0.2863
IC50 (80 mV, 15 µM Ca2+): 3.83 µM
remaining activity at 3 µM (80 mV): 55.6%
remaining activity at 10 µM (80 mV): 26.8%
remaining activity at 30 µM (80 mV): 13.6%
remaining activity at 100 µM (80 mV): 5.37%
IC50 (100 mV, 15 µM Ca2+): 3.89 µM
remaining activity at 3 µM (100 mV): 55.3%
remaining activity at 10 µM (100 mV): 27%
remaining activity at 30 µM (100 mV): 15.6%
remaining activity at 100 µM (100 mV): 5.12%
IC50 (120 mV, 15 µM Ca2+): 4.05 µM
remaining activity at 3 µM (120 mV): 56.6%
remaining activity at 10 µM (120 mV): 27.6%
remaining activity at 30 µM (120 mV): 16%
remaining activity at 100 µM (120 mV): 4.9%
IC50 (140 mV, 15 µM Ca2+): 4.5 µM
remaining activity at 3 µM (140 mV): 58.9%
remaining activity at 10 µM (140 mV): 29.8%
remaining activity at 30 µM (140 mV): 17.2%
remaining activity at 100 µM (140 mV): 5.22%
IC50 (-20 mV, 15 µM Ca2+): 8.22 µM
remaining activity at 3 µM (-20 mV): 73.2%
remaining activity at 10 µM (-20 mV): 44.1%
remaining activity at 30 µM (-20 mV): 22.1%
remaining activity at 100 µM (-20 mV): 10.2%
IC50 (-40 mV, 15 µM Ca2+): 10.2 µM
remaining activity at 3 µM (-40 mV): 77.7%
remaining activity at 10 µM (-40 mV): 49.5%
remaining activity at 30 µM (-40 mV): 25.2%
remaining activity at 100 µM (-40 mV): 11%
IC50 (-60 mV, 15 µM Ca2+): 12.5 µM
remaining activity at 3 µM (-60 mV): 81.7%
remaining activity at 10 µM (-60 mV): 54.6%
remaining activity at 30 µM (-60 mV): 29.3%
remaining activity at 100 µM (-60 mV): 11.8%
IC50 (-80 mV, 15 µM Ca2+): 16 µM
remaining activity at 3 µM (-80 mV): 85.2%
remaining activity at 10 µM (-80 mV): 60.7%
remaining activity at 30 µM (-80 mV): 34%
remaining activity at 100 µM (-80 mV): 16.3%
IC50 (-100 mV, 15 µM Ca2+): 19.2 µM
remaining activity at 3 µM (-100 mV): 87.8%
remaining activity at 10 µM (-100 mV): 65.1%
remaining activity at 30 µM (-100 mV): 37.6%
remaining activity at 100 µM (-100 mV): 18.6%
IC50 (-120 mV, 15 µM Ca2+): 23.6 µM
remaining activity at 3 µM (-120 mV): 90.9%
remaining activity at 10 µM (-120 mV): 69.5%
remaining activity at 30 µM (-120 mV): 41.8%
remaining activity at 100 µM (-120 mV): 22.1%
IC50 (-140 mV, 15 µM Ca2+): 27.8 µM
remaining activity at 3 µM (-140 mV): 92.3%
remaining activity at 10 µM (-140 mV): 72.1%
remaining activity at 30 µM (-140 mV): 45.6%
remaining activity at 100 µM (-140 mV): 25.9%
IC50 (I636A, V 0 mV): 6.73 µM
IC50 (I636A, V 20 mV): 5.47 µM
IC50 (I636A, V 40 mV): 4.65 µM
IC50 (I636A, V 60 mV): 4.03 µM
IC50 (I636A, V 80 mV): 3.83 µM
IC50 (I636A, V 100 mV): 3.89 µM
IC50 (I636A, V 120 mV): 4.05 µM
IC50 (I636A, V 140 mV): 4.5 µM
IC50 (I636A, V -20 mV): 8.22 µM
IC50 (I636A, V -40 mV): 10.2 µM
IC50 (I636A, V -60 mV): 12.5 µM
IC50 (I636A, V -80 mV): 16 µM
IC50 (I636A, V -100 mV): 19.2 µM
IC50 (I636A, V -120 mV): 23.6 µM
IC50 (I636A, V -140 mV): 27.8 µM
